We go through 4 compounds from patent US5219841A, “Treatment of arrhythmia by administration of Ap4 A” (Fujirebio, Inc., priority 1989, dated 1993).

In one assay the test system is guinea pig right atrium. Nature of the assay: Effect on heart rate of isolated guinea pig right atrium. The conditions noted are these: single dose, 10^-7 to 10^-4 M, KH solution, 31° C. As for the experimental part:
A guinea pig (b.w. 450 g) was stunned and was immediately removed its heart to excise the right atrium therefrom. The right atrium was then suspended in a Magnus tube (30 ml) filled with Krebs-Henseleit (KH) solution which was maintained at 31° C. constantly aerating with a mixture of 95% O2 --5% CO2 therein. After the KH solution was changed with the fresh one at 15-minutes intervals and the heart rate of the right atrium was stabilized in 60-90 minutes, Ap4 A or ATP which was prepared at different concentrations was added to the KH solution in a single dose to determine the change of heart rate. Drug concentrations of 10^-4, 10^-5, 10^-6 and 10^-7 M were employed in this experiment. The heart rate was determined with a cardiotachometer (Nihon Kohden Co.; Model AT601G; Japan) and an isometric converter (Nihon Kohden Co.; Model TB-651T), with a 1-g weight load.

The subject of assay [1] is ouabain-induced cardiac arrhythmia. Description: Ouabain-induced arrhythmia model. It is filed as in vivo, guinea pig. The note with it: i.v. infusion over 5 min: ATP 10 or 30 mg/kg; Ap4 A 30 mg/kg; disopyramide 5 mg/kg; ouabain 7 μg/kg/min. As for the experimental part: With a guinea pig (b.w. 450 g) placed under urethane anesthesia (1.1 g/kg), its femoral vein, jugular vein and carotid artery were cannulated. Ap4 A, ATP or disopyramide was injected into the femoral vein and ouabain into the jugular vein through each cannula, while the carotid artery was utilized for a blood pressure monitoring. Changes associated with the administration of the drug were assessed by monitoring electrocardiogram (ECG), blood pressure, mean blood pressure and heart rate (Nihon Kohden Co.; Models AB620G, AP601G and AT601G). ECG was recorded in accordance with the lead II.
Ouabain-induced cardiac arrhythmia model was prepared by continuous infusion of ouabain at a rate of 7 μg/kg/min via the jugular vein. Each drug was administered by intravenous infusion over a period of 5 minutes at the following dose: ATP, 10 or 30 mg/kg; Ap4 A, 30 mg/kg; and disopyramide, 5 mg/kg. The drug was administered simultaneously with the infusion of ouabain. The antiarrhythmic effect of the drug tested was assessed in terms of the total dose of ouabain given until onset of each of the following parameters: P-P interval prolongation, T-P overlapping, ventricular arrhythmia, ventricular fibrillation and cardiac arrest.

For assay [2], the system named is adrenaline-induced cardiac arrhythmia. Nature of the assay: Adrenaline-induced arrhythmia model. The note with it: for antiarrhythmic effect (reduction of incidence of extrasystole): i.v. infusion over 5 min: ATP 3 or 10 mg/kg, Ap4 A 3 or 10 mg/kg, propranolol 1 mg/kg. It is filed as in vivo, guinea pig. As for the experimental part: With a guinea pig (b.w. 450 g) placed under urethane anesthesia (1.1 g/kg), its femoral vein, jugular vein and carotid artery were cannulated. Ap4 A, ATP or propranolol was injected into the femoral vein and adrenaline into the jugular vein through each cannula, while the carotid artery was utilized for a blood pressure monitoring. Changes associated with the administration of the drug were monitored in the same manner as above (B), and ECG was recorded in accordance with the lead II.
Adrenaline-induced cardiac arrhythmia model was prepared by injecting adrenaline (10 μg/kg) into the jugular vein over 5 seconds. Each drug was administered by intravenous infusion over a period of 5 minutes at the following dose: ATP, 3 or 10 mg/kg; Ap4 A, 3 or 10 mg/kg; propranolol, 1 mg/kg. Adrenaline was administered in a single dose 4 minutes after administration of the drug tested. The grading of arrhythmia was assessed in terms of the incidence of extrasystole.

The subject of the next assay is platelet aggregation. Description: Platelet aggregation by the drug itself in absence of ADP. It is filed as cell-based, rabbit.
The test system of a further assay is arrhythmia. The conditions noted are these: cited from earlier work; for antiarrhythmic activity: Somlo 1955, Komor and Garas 1955.
The conditions of assay [3]: Fujii and Nakamura 1977; cited from earlier work.

Entries after “also recorded” stand apart in the source; their conditions may differ. Some results are limits rather than exact numbers.

For the compound `Nc1ncnc2c1ncn2[C@@H]1O[C@H](COP(=O)(O)OP(=O)(O)OP(=O)(O)O)[C@@H](O)[C@H]1O` [ATP, Adenosine 5'-triphosphate, reference compound], the “change of heart rate (bradycardic effect)” value in the assay on guinea pig right atrium is listed as “reduced the heart rate with a dose-dependency; also recorded: decreased the atrial heart rate with a dose-dependency”. The “antiarrhythmic effect: onset of P-P interval prolongation, T-P overlapping, ventricular arrhythmia, ventricular fibrillation and cardiac arrest” value in assay [1] was “has an antiarrhythmic activity; also recorded: inhibited all these parameters”. For the same compound, the incidence of extrasystole in assay [2] (10 mg/kg/5min i.v., adrenaline 10 μg/kg, control value 39%) turned out to be 5.3%. Besides, the “antiarrhythmic effect (reduction of incidence of extrasystole)” value in assay [2] is “reduced the incidence of extrasystole with a dose-dependency; also recorded: dose-dependent reduction of the incidence of extrasystole”. Moreover, the “platelet aggregation by the drug itself” value in the assay with platelet aggregation (3×10^-5 M or more, absence of ADP) is “caused a dose-dependent aggregation of platelets”. Moreover, the minimal effective concentration in the assay on platelet aggregation (Oryctolagus cuniculus, Platelet, absence of ADP, read-out: concentration causing dose-dependent aggregation of platelets) was at least 30 µM. Also, the platelet-aggregating activity entry with platelet aggregation (in words, found by the inventors) is given as “has platelet-aggregating activity”. For the same compound, the antiarrhythmic activity entry with arrhythmia is “possess the antiarrhythmic activity”. Besides, the “effect on paroxysmal supraventricular tachycardia” value with arrhythmia (clinical, Otsuka et al. 1986) was “successful arrest of the paroxysmal supraventricular tachycardia; also recorded: efficacy against the paroxysmal supraventricular tachycardia which is insusceptible to other antiarrhythmic drugs such as verapamil, digoxin and ajimaline”. Moreover, in assay [3], the “vasodilation and other pharmacological effects” value is reported as “vasodilation; also recorded: enhancement of in vivo metabolic activity; also recorded: increase in muscle contraction; also recorded: rise of efficiency of the neural transmission”.

For `Nc1ncnc2c1ncn2[C@@H]1O[C@H](CO)[C@@H](O)[C@H]1O` [adenosine], the antiarrhythmic activity entry in the assay on arrhythmia is listed as “possess the antiarrhythmic activity”.

`CC(C)N(CCC(C(N)=O)(c1ccccc1)c1ccccn1)C(C)C` (stereo not shown) [disopyramide, reference compound]: the “antiarrhythmic effect: onset of P-P interval prolongation, T-P overlapping, ventricular arrhythmia, ventricular fibrillation and cardiac arrest” value in assay [1] is given as “has an antiarrhythmic activity; also recorded: inhibited all these parameters”.

Take `CC(C)NCC(O)COc1cccc2ccccc12` (stereo not shown) [propranolol, reference compound]: the “antiarrhythmic effect (reduction of incidence of extrasystole)” value in assay [2] is listed as “reduced the incidence of extrasystole with a dose-dependency; also recorded: dose-dependent reduction of the incidence of extrasystole”.
